According to PubChem BioAssay AID1918931 (Molecular Pharmacology Branch, DTP, NCI, 2023):
Values joined by “and” are separate entries in the source; they are usually repeats but may differ in a detail not shown here. Equal values may be shown once.

Test system: 138582-337-R-J1-PDC complex spheroid viability
Assay: Anticancer human tumor 138582-337-R-J1-PDC patient-derived Merkel cell tumor cell line growth inhibition
Settings: for viability, T/C: stronger effect = lower value
Excerpt: Multicellular complex tumor spheroid response to LSD1 Inhibitor Iadademstat in combination with a variety of drugs and investigational agents in selected tumor cell lines
The current study was undertaken to assess response to LSD1 inhibitors in combination with standard-of-care drugs and investigational agents in solid tumor complex spheroid models as well as in the K-562 leukemia. Complex spheroids include a stromal component modeled by human endothelial cells (HUVEC) and fibroblasts modeled by human mesenchymal stem cells (MSCs). The concentration ranges selected for each drug and investigational agent were based upon clinically achievable concentrations if the clinical Cmax of the agent was known.
Compounds. The drugs and investigational agents used in this study are listed on Table 1. All of the agents used, including staurosporine (NSC755774) and gemcitabine (NSC613327), were obtained from the Developmental Therapeutics Program, NCI. FDA-approved anticancer drugs are available from the NCI at http://dtp.nci.nih.gov/branches/dscb/oncology_drugset_explanation.html. Drugs and investigational agents were >95% pure by proton nuclear magnetic resonance (NMR) and liquid chromatography/mass spectrometry (LC/MS). Stock solutions were prepared at 400x in DMSO, stored at -70 degrees C, and diluted in fresh medium prior to their use. The final concentration of DMSO in cell culture wells never exceeded 0.25% (v/v). The FDA-approved anticancer drug set is available from the Developmental Therapeutics Program at https://dtp.cancer.gov/organization/dscb/obtaining/available_plates.htm. All drugs and investigational agents were tested over a range starting from a high concentration at or near the clinical Cmax and decreasing in half-log increments. If the clinical Cmax for an agent had not been determined, the highest concentration tested was 10 microM.
Cell Lines. The patient-derived cancer cell (PDC) lines: 292921-168-R-J2-PDC, K24384-001-R-PDC, and 521955-158-R2-J5-PDC pancreatic carcinomas, 556581-035-R-J1 ovarian carcinoma, 324938-238-R-J1-PDC, 855422-203-R-J1-PDC and 883617-216-R-J1-PDC urothelial bladder carcinomas, 743489-274-T-PDC renal cell carcinoma, 138582-R-J1 Merkel cell tumor, K60290-347-R-J1 and K57222-313-R-J1-PDC glioblastomas, 653999-131-R-J2-PDC, LG0703-F948-PDC, and 349418-098-R-PDC non-small cell lung carcinomas, 885512-296-R-J2-PDC, 171881-019-R-J1-PDC breast carcinomas and 186277-243-T-J2-PDC and 233499-124-R-J2-PDC colon carcinomas were obtained from the NCI Patient-Derived Models Repository (PDMR, https://pdmr.cancer.gov). The established cell lines NCI/ADR-RES (RRID:CVCL_14520 and OVCAR-5 (RRID:CVCL_1628) ovarian carcinomas, 786-O (RRID:CVCL_1051) and A498 (RRID:CVCL_A498) renal cell carcinoma, NCI-H211 (ATCC, cat. CRL-5824; RRID:CVCL_1529), NCI-H196 (ATCC, cat. CRL-5823, RRID:CVCL_1509), SW 1271 (ATCC, cat. CRL-2177, RRID:CVCL_1716) and NCI-H1876 (ATCC, cat. CRL-5902, RRID:CVCL_1503) small cell lung carcinomas, MDA-MB-231 (RRID:CVCL_0062) and MDA-MB-468 (RRID:CVCL_0419)breast carcinomas (10-12). Pooled donor human umbilical vein endothelial cells (HUVEC, Lonza, cat. CC-2519) and human mesenchymal stem cells (hMSC, Lonza, cat. PT-2501) were purchased from Lonza (Walkersville, MD).
Cell Culture. All cells were maintained in an incubator at 37 degrees C and 5% CO2 with 95% humidity. The PDC lines were cultured according to standard operating procedures established by the NCI PDMR (https://pdmr.cancer.gov). Briefly all PDCs were thawed and cultured in Matrigel-coated flasks prepared with a working solution of 1X Ham's F-12 nutrient mix, without supplementation (Invitrogen, Waltham, MA, cat. 11765054), 100 U/mL penicillin-streptomycin (Invitrogen, cat. 15140122), and 2.5% Matrigel (Corning Inc., Corning, NY, cat. 354248) for the first three passages. […]

[1] = curve of first compound, second compound 0.1 µM
[2] = curve of first compound, second compound 0.316 µM
[3] = curve of first compound, second compound 1 µM
[4] = curve of first compound, second compound 3.16 µM
[5] = curve of first compound, second compound 10 µM
[6] = second compound 0.1 µM, first compound 0.00316 µM
[7] = second compound 0.1 µM, first compound 0.01 µM
[8] = second compound 0.1 µM, first compound 0.0316 µM
[9] = second compound 0.1 µM, first compound 0.1 µM
[10] = second compound 0.316 µM, first compound 0.00316 µM
[11] = second compound 0.316 µM, first compound 0.01 µM
[12] = second compound 0.316 µM, first compound 0.0316 µM
[13] = second compound 0.316 µM, first compound 0.1 µM
[14] = second compound 1 µM, first compound 0.00316 µM
[15] = second compound 1 µM, first compound 0.01 µM
[16] = second compound 1 µM, first compound 0.0316 µM
[17] = second compound 1 µM, first compound 0.1 µM
[18] = second compound 3.16 µM, first compound 0.00316 µM
[19] = second compound 3.16 µM, first compound 0.01 µM
[20] = second compound 3.16 µM, first compound 0.0316 µM
[21] = second compound 3.16 µM, first compound 0.1 µM
[22] = second compound 10 µM, first compound 0.00316 µM
[23] = second compound 10 µM, first compound 0.01 µM
[24] = second compound 10 µM, first compound 0.0316 µM
[25] = second compound 10 µM, first compound 0.1 µM
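Note: spheroids exposed to agents for 7 days.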
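Throughout, for viability, T/C: 100% = DMSO vehicle control viability.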

CC(C)CC(NC(=O)CNC(=O)c1cc(Cl)ccc1Cl)B1OC(=O)CC(CC(=O)O)(C(=O)O)O1 (stereo not drawn) + NC1CCC(NC2CC2c2ccccc2)CC1
IC50 [1]: 8.89 nM
IC50 [2]: 8.97 nM
IC50 [3]: 10 nM
IC50 [4]: 8.03 nM
IC50 [5]: 8.49 nM
viability, T/C (second compound 0.1 µM, first compound 0.000316 µM): 101%
viability, T/C (second compound 0.1 µM, first compound 0.001 µM): 129%
viability, T/C [6]: 124%
viability, T/C [7]: 42.3%
viability, T/C [8]: 6.66%
viability, T/C [9]: 0.46%
viability, T/C (second compound 0.316 µM, first compound 0.000316 µM): 109%
viability, T/C (second compound 0.316 µM, first compound 0.001 µM): 129%
viability, T/C [10]: 115%
viability, T/C [11]: 42.9%
viability, T/C [12]: 11.4%
viability, T/C [13]: 0.49%
viability, T/C (second compound 1 µM, first compound 0.000316 µM): 94.4%
viability, T/C (second compound 1 µM, first compound 0.001 µM): 115%
viability, T/C [14]: 120%
viability, T/C [15]: 50.1%
viability, T/C [16]: 7.89%
viability, T/C [17]: 0.25%
viability, T/C (second compound 3.16 µM, first compound 0.000316 µM): 104%
viability, T/C (second compound 3.16 µM, first compound 0.001 µM): 98.8%
viability, T/C [18]: 112%
viability, T/C [19]: 37.1%
viability, T/C [20]: 9.88%
viability, T/C [21]: 0.47%
viability, T/C (second compound 10 µM, first compound 0.000316 µM): 89.8%
viability, T/C (second compound 10 µM, first compound 0.001 µM): 105%
viability, T/C [22]: 101%
viability, T/C [23]: 42%
viability, T/C [24]: 7.38%
viability, T/C [25]: 0.96%

O=C(C=Cc1cccc(S(=O)(=O)Nc2ccccc2)c1)NO
viability, T/C (compound 0.00949 µM): 96.1% and 76.4%
viability, T/C (compound 0.03 µM): 91.5% and 67.6%
viability, T/C (compound 0.0949 µM): 90% and 49.2%
viability, T/C (compound 0.3 µM): 73.3% and 23.6%
viability, T/C (compound 0.949 µM): 36% and 0.96%
IC50 (curve of compound): 616 nM and 84.4 nM

O=C(c1cc(Cc2n[nH]c(=O)c3ccccc23)ccc1F)N1CCN(C(=O)C2CC2)CC1
viability, T/C (compound 0.0316 µM): 106% and 90%
viability, T/C (compound 0.1 µM): 71.7% and 93.4%
viability, T/C (compound 0.316 µM): 96.6% and 98.8%
viability, T/C (compound 1 µM): 83.5% and 71.4%
viability, T/C (compound 3.16 µM): 78% and 57.2%
viability, T/C (compound 10 µM): 82.9% and 63.8%
IC50 (curve of compound): > 10000 nM

Nc1ncn(C2CC(O)C(CO)O2)c(=O)n1 (stereo not drawn) + NC1CCC(NC2CC2c2ccccc2)CC1
IC50 [1]: > 1000 nM
IC50 [2]: > 1000 nM
IC50 [3]: > 1000 nM
IC50 [4]: > 1000 nM
IC50 [5]: > 1000 nM
viability, T/C [6]: 98.7%
viability, T/C [7]: 97.8%
viability, T/C [8]: 103%
viability, T/C [9]: 108%
viability, T/C (second compound 0.1 µM, first compound 0.316 µM): 95.4%
viability, T/C (second compound 0.1 µM, first compound 1 µM): 102%
viability, T/C [10]: 82.7%
viability, T/C [11]: 99.4%
viability, T/C [12]: 96.6%
viability, T/C [13]: 107%
viability, T/C (second compound 0.316 µM, first compound 0.316 µM): 89.7%
viability, T/C (second compound 0.316 µM, first compound 1 µM): 96.5%
viability, T/C [14]: 96.9%
viability, T/C [15]: 110%
viability, T/C [16]: 97.5%
viability, T/C [17]: 81.1%
viability, T/C (second compound 1 µM, first compound 0.316 µM): 83.2%
viability, T/C (second compound 1 µM, first compound 1 µM): 97.3%
viability, T/C [18]: 100%
viability, T/C [19]: 97.5%
viability, T/C [20]: 93.1%
viability, T/C [21]: 91.8%
viability, T/C (second compound 3.16 µM, first compound 0.316 µM): 103%
viability, T/C (second compound 3.16 µM, first compound 1 µM): 95.3%
viability, T/C [22]: 87.2%
viability, T/C [23]: 86%
viability, T/C [24]: 91.8%
viability, T/C [25]: 82.4%
viability, T/C (second compound 10 µM, first compound 0.316 µM): 84.7%
viability, T/C (second compound 10 µM, first compound 1 µM): 76.1%
